Measurements published in US20040198663A1, “Method of treating cardiac ischemia by using erythropoietin” (priority 2003, published 2004).
Entries after “also recorded” stand apart in the source; their conditions may differ.

System: hearts from normoxic rabbits
Test: Mechanism studies: inhibitors/blockers perfused alone, then with erythropoietin, before global ischemia
Parameters: species or system New Zealand White rabbit
Conditions: for effect of protein kinase inhibitor on the cardioprotective effect of erythropoietin: inhibitor 15 min alone, then 15 min with erythropoietin 1.0 U/ml prior to ischemia
Procedure: Resistance to myocardial ischemia. Hearts from infant rabbits were perfused with bicarbonate buffer, and biventricular function was monitored continuously throughout each experiment as described in Rafiee et al., Circulation 106:239-45 (2002). For concentration response studies, hearts were then perfused with erythropoietin (0.5-10.0 U/ml) for 15 minutes prior to 30 minutes ischemia and 35 minutes reperfusion. For mechanism studies with protein kinase inhibitors, potassium channel blockers or nitric oxide synthase inhibitors, hearts were perfused with drugs for 15 minutes alone followed by 15 minutes in combination with erythropoietin prior to ischemia. Hearts perfused with protein kinase inhibitors or potassium channel blockers alone in the absence of erythropoietin for 30 minutes prior to ischemia served as untreated controls for these studies. Recovery of post-ischemic left and right ventricular developed pressure was expressed as a percentage of its pre-drug, pre-ischemic value.
Hearts from normoxic rabbits were perfused with protein kinase inhibitors alone for 15 minutes and then combined with erythropoietin for a further 15 minute period prior to ischemia.
Hearts were perfused with KATP channel blockers alone for 15 minutes and then in combination with erythropoietin (1.0 U/ml) for another 15-minute period prior to ischemia.
Hearts were perfused with Paxilline (1 μM), a blocker of the KCa channel, alone for 15 minutes and then in combination with erythropoietin (1.0 U/ml) for another 15-minute period prior to ischemia.
Hearts from normoxic rabbits were perfused with nitric oxide synthase inhibitors combined with erythropoietin (1.0 U/ml) for 15 minutes prior to ischemia.

CCCCCC(O)CCCC(=O)O (centres unmarked) [5-hydroxydecanoate]
effect on the cardioprotective effect of erythropoietin (5-hydroxydecanoate 300 μM, 15 min alone then 15 min with erythropoietin 1.0 U/ml): partially | effect on the cardioprotective effect of erythropoietin (5-hydroxydecanoate 300 μM, 15 min alone then 15 min with erythropoietin 1.0 U/ml, listed as 5-HD): abolished; also recorded: only partially prevented

COc1ccc(Cl)cc1C(=O)NCCc1ccc(S(=O)(=O)NC(=O)NC2CCCCC2)cc1 [Glibenclamide]
effect on the cardioprotective effect of erythropoietin (glibenclamide 3 μM, 15 min alone then 15 min with erythropoietin 1.0 U/ml): completely abolished | effect on the cardioprotective effect of erythropoietin (glibenclamide 3 μM, 15 min alone then 15 min with erythropoietin 1.0 U/ml, listed as glibenclamide): abolished; also recorded: completely prevented

CNC(=S)NS(=O)(=O)c1cc(CCNC(=O)c2cc(Cl)ccc2OC)ccc1OC [HMR 1098]
effect on the cardioprotective effect of erythropoietin (HMR 1098 30 μM, 15 min alone then 15 min with erythropoietin 1.0 U/ml): abolished; also recorded: completely prevented; also recorded: completely blocked

COC(=O)[C@@H](N)CCCNC(=N)N[N+](=O)[O-] [L-NAME]
effect on the cardioprotective effect of erythropoietin (L-NAME 200 μM combined with erythropoietin 1.0 U/ml for 15 minutes): did not block

CNC(=N)NCCC[C@H](N)C(=O)O [L-NMA]
effect on the cardioprotective effect of erythropoietin (L-NMA 100 μM combined with erythropoietin 1.0 U/ml for 15 minutes): did not block

COc1cccc(-c2cc(=O)c3ccccc3o2)c1N [PD98059]
effect of protein kinase inhibitor on the cardioprotective effect of erythropoietin: abolished

CC(C)(O)[C@H]1O[C@H]2CC[C@@]3(C)[C@@](O)(CC[C@H]4Cc5c([nH]c6ccccc56)[C@@]43C)C2=CC1=O [Paxilline]
effect on untreated hearts (Paxilline 1 μM alone, no erythropoietin): no effect

C[S+]([O-])c1ccc(-c2nc(-c3ccncc3)c(-c3ccc(F)cc3)[nH]2)cc1 (centres unmarked) [SB203580]
effect of protein kinase inhibitor on the cardioprotective effect of erythropoietin: abolished

COc1ccc2c(c[n+](C)c3c4cc5c(cc4ccc23)OCO5)c1OC [chelerythrine]
effect of protein kinase inhibitor on the cardioprotective effect of erythropoietin: abolished
